# Reference: PMC9779606, “Synthesis, Structural Characterization and Biological Activity Evaluation of Novel Cu(II) Complexes with 3-(trifluoromethyl)phenylthiourea Derivatives” (International Journal of Molecular Sciences, 2022)
# Tests used:
# M. tuberculosis H37Rv = test: Tuberculostatic activity, Microplate Alamar Blue Assay (MABA); assay type: cell-based, Mycobacterium tuberculosis; settings: M. tuberculosis H37Rv, standard strain, MABA
# [1] = tested on: PC3 (metastatic prostate cancer); test: Cytotoxicity, MTT assay; assay type: cell-based, human; settings: 72 h, mean SD
# Procedure: (§1) MTT assay was performed as previously described. Experiments were repeated three times. […] Decreased relative MTT level means decreased cell viability.
# [2] = tested on: SW620 (metastatic colon cancer); test: Cytotoxicity, MTT assay; assay type: cell-based, human; settings: 72 h, mean SD
# Procedure: as §1
# [3] = tested on: SW480 (primary colon cancer); test: Cytotoxicity, MTT assay; assay type: cell-based, human; settings: 72 h, mean SD
# Procedure: as §1
# S. aureus 496 = test: MIC, hospital methicillin-resistant strains (MRSA); settings: hospital MRSA strain S. aureus 496
# S. aureus ATCC 29213 = test: MIC, twofold serial microdilution, standard strains; settings: S. aureus ATCC 29213, standard strain
# S. epidermidis 437 = test: MIC, hospital methicillin-resistant strains (MRSE); settings: hospital MRSE strain S. epidermidis 437
# C. albicans ATCC 10231 = test: MIC, twofold serial microdilution, standard fungal strains; settings: C. albicans ATCC 10231, standard strain
# S. epidermidis 435 = test: MIC, hospital methicillin-resistant strains (MRSE); settings: hospital MRSE strain S. epidermidis 435
# S. epidermidis 423 = test: MIC, hospital methicillin-resistant strains (MRSE); settings: hospital MRSE strain S. epidermidis 423
# S. epidermidis 433 = test: MIC, hospital methicillin-resistant strains (MRSE); settings: hospital MRSE strain S. epidermidis 433
# [4] = tested on: M. tuberculosis Spec. 192; test: Tuberculostatic activity, Microplate Alamar Blue Assay (MABA); assay type: cell-based, Mycobacterium tuberculosis; settings: M. tuberculosis Spec. 192, patient isolate fully sensitive to tuberculostatics, MABA
# [5] = tested on: S. epidermidis ATCC 35984; test: MIC, twofold serial microdilution, standard strains; settings: S. epidermidis ATCC 35984, standard strain
# [6] = tested on: S. epidermidis ATCC 12228; test: as above; settings: S. epidermidis ATCC 12228, standard strain
# S. epidermidis 432 = test: MIC, hospital methicillin-resistant strains (MRSE); settings: hospital MRSE strain S. epidermidis 432
# S. aureus 572 = test: MIC, hospital methicillin-resistant strains (MRSA); settings: hospital MRSA strain S. aureus 572
# S. epidermidis 471 = test: MIC, hospital methicillin-resistant strains (MRSE); settings: hospital MRSE strain S. epidermidis 471
# S. aureus 498 = test: MIC, hospital methicillin-resistant strains (MRSA); settings: hospital MRSA strain S. aureus 498
# S. aureus 585 = test: MIC, hospital methicillin-resistant strains (MRSA); settings: hospital MRSA strain S. aureus 585
# E. coli ATCC 25922 = test: MIC, twofold serial microdilution, standard strains; settings: E. coli ATCC 25922, standard strain
# [7] = tested on: Bacillus subtilis H17 (rec+); settings: B. subtilis H17 (rec+); 256 µg per 9 mm disc (NOQ 2 µg per disc)
# Procedure: (§2) DNA-damaging activity of compounds was tested by rec-assay using two genetically modified Bacillus subtilis strains: M45 (rec^−) and H17 (rec^+). Tested compounds were dissolved in DMSO, and 10 µL of each solution was dripped onto sterile cotton discs (Rotilabo) to load 256 µg of a given compound per 9 mm disc. Discs were placed on the surface Nutrient agar plates (Difco) inoculated with 100 µL of bacterial overnight culture and incubated for 24 h at 35 °C. After incubation, the growth inhibition zones were measured. […] Results of the genotoxicity test were estimated after 18 h of incubation at 35 °C by comparing the diameter of the inhibition zone on the B. subtilis M45 (rec^−) strain with that on the B. subtilis H17 (rec^+) strain.
# [8] = tested on: Bacillus subtilis M45 (rec−); settings: B. subtilis M45 (rec−); 256 µg per 9 mm disc (NOQ 2 µg per disc)
# Procedure: as §2
# S. aureus 567 = test: MIC, hospital methicillin-resistant strains (MRSA); settings: hospital MRSA strain S. aureus 567
# S. epidermidis 438 = test: MIC, hospital methicillin-resistant strains (MRSE); settings: hospital MRSE strain S. epidermidis 438
# S. aureus 497 = test: MIC, hospital methicillin-resistant strains (MRSA); settings: hospital MRSA strain S. aureus 497
# S. aureus 514 = test: MIC, hospital methicillin-resistant strains (MRSA); settings: hospital MRSA strain S. aureus 514
# S. aureus 568 = test: MIC, hospital methicillin-resistant strains (MRSA); settings: hospital MRSA strain S. aureus 568
# S. aureus ATCC 25923 = test: MIC, twofold serial microdilution, standard strains; settings: S. aureus ATCC 25923, standard strain
# [9] = tested on: methicillin-resistant Staphylococci (MRSA, MRSE); settings: all hospital staphylococcal strains, Table 5
# S. epidermidis 436 = test: MIC, hospital methicillin-resistant strains (MRSE); settings: hospital MRSE strain S. epidermidis 436
# S. aureus NCTC 4163 = test: MIC, twofold serial microdilution, standard strains; settings: S. aureus NCTC 4163, standard strain
smiles,measurement,setting,value
"FC(F)(F)c1cccc([N-]C(=S)Nc2cccc(Br)c2)c1.FC(F)(F)c1cccc([N-]C(=S)Nc2cccc(Br)c2)c1.[Cu+2] [Cu4, Copper(II) Complex with 1-(3-bromophenyl)-3-[3-(trifluoromethyl)phenyl] thiourea]",MIC,M. tuberculosis H37Rv,4 µg/mL
same,IC50,[1],70.1 ± 5.3 µM
same,IC50,[2],69.1 ± 1.8 µM
same,IC50,[3],89.8 ± 2.6 µM
same,MIC,S. aureus 496,8 µg/mL
same,MIC,S. aureus ATCC 29213,8 µg/mL
same,MIC,S. epidermidis 437,8 µg/mL
same,MIC,C. albicans ATCC 10231,≥256 µg/mL
same,MIC,S. epidermidis 435,8 µg/mL
same,MIC,S. epidermidis 423,8 µg/mL
same,MIC,S. epidermidis 433,8 µg/mL
same,MIC,[4],4 µg/mL
same,MIC,[5],8 µg/mL
same,MIC,[6],8 µg/mL
same,MIC,S. epidermidis 432,8 µg/mL
same,MIC,S. aureus 572,8 µg/mL
same,MIC,S. epidermidis 471,8 µg/mL
same,MIC,S. aureus 498,8 µg/mL
same,MIC,S. aureus 585,8 µg/mL
same,MIC,E. coli ATCC 25922,128 µg/mL
same,"Genotoxic activity, inhibition zone diameter, H17",[7],15 mm
same,"Genotoxic activity, inhibition zone diameter, M45",[8],17 mm
same,MIC,S. aureus 567,8 µg/mL
same,MIC,S. epidermidis 438,8 µg/mL
same,MIC,S. aureus 497,8 µg/mL
same,MIC,S. aureus 514,8 µg/mL
same,MIC,S. aureus 568,8 µg/mL
same,MIC,S. aureus ATCC 25923,8 µg/mL
same,MIC level against hospital staphylococcal strains,[9],8 to 128 µg/mL
same,MIC,S. epidermidis 436,8 µg/mL
same,MIC,S. aureus NCTC 4163,8 µg/mL
